Laboratory results from the NIST ThermoML archive (doi:10.1021/je100594u).
Several values for one entry are separate records, joined by “and”; a condition that tells them apart may be missing. Equal entries are not always repeated.

Assays:
[1] = xn = mol fraction of the nth substance listed; settings: 298.15 K, 101.3 kPa, Liquid; for viscosity: Capillary tube (Ostwald / Ubbelohde) method; for speed of sound: Linear variable-path acoustic interferometer; for mass density: Pycnometric method
[2] = refractive index (Na D-line) (dimensionless); xn = mol fraction of the nth substance listed; settings: 298.15 K, 101.3 kPa, Liquid
[3] = 298.15 K, 101.3 kPa, Liquid; for viscosity: Capillary tube (Ostwald / Ubbelohde) method; for speed of sound: Linear variable-path acoustic interferometer; for mass density: Pycnometric method
[4] = refractive index (Na D-line) (dimensionless); settings: 298.15 K; 101.33 kPa; Liquid

CCOCC [diethyl ether] + C1COCO1
Settings | mass density, [1] [kg/m3] | refractive index, [2] | speed of sound, [1] | viscosity, [1] [mPa·s]
x2 = 0 | 708.3 | 1.3515 | 982.3 m/s | 0.2469
x2 = 0.1 | 736.4 | 1.3568 | 1003.9 m/s | 0.2656
x2 = 0.2 | 765.6 | 1.3604 | 1033.4 m/s | 0.2844
x2 = 0.3001 | 796.3 | 1.3649 | 1067.4 m/s | 0.3055
x2 = 0.4001 | 829 | 1.3696 | 1108.5 m/s | 0.331
x2 = 0.5001 | 863.4 | 1.3743 and 1.375 | 1152.8 m/s and 1149.2 m/s | 0.3604
x2 = 0.6001 | 899.7 | 1.3791 | 1191.4 m/s | 0.3944
x2 = 0.7001 | 938.2 | 1.3842 | 1230.9 m/s | 0.4345
x2 = 0.8 | 977 | 1.3893 | 1265.3 m/s | 0.4784
x2 = 0.9 | 1018.4 | 1.3956 | 1302.4 m/s | 0.5305

C1COCO1 [1,3-dioxolane] + CCCCCO
Settings | mass density, [1] [kg/m3] | refractive index, [2] | speed of sound, [1] [m/s] | viscosity, [1] [mPa·s]
x1 = 0.1168 | 832.9 | 1.4085 | 1278.8 | 2.505
x1 = 0.2293 | 854.5 | 1.4072 | 1287.5 | 1.885
x1 = 0.3377 | 876.6 | 1.406 | 1296.8 | 1.44
x1 = 0.4424 | 899.2 | 1.405 | 1305 | 1.063
x1 = 0.5434 | 922.5 | 1.404 | 1313.4 | 0.9063
x1 = 0.6409 | 946.8 | 1.403 | 1321.5 | 0.756
x1 = 0.7352 | 972.5 | 1.4022 | 1327.1 | 0.6472
x1 = 0.8264 | 999.3 | 1.401 | 1332.7 | 0.5704
x1 = 0.9146 | 1028.2 | 1.4 | 1337 | 0.5413
x1 = 1 | 1058.7 | 1.3985 | 1339.5 | 0.5894

CCOCC [diethyl ether] + CCCCCO
Settings | mass density, [1] [kg/m3] | refractive index, [2] | speed of sound, [1] [m/s] | viscosity, [1] [mPa·s]
x1 = 0.1167 | 805.2 | 1.4043 | 1241.8 | 2.651
x1 = 0.2292 | 797.5 | 1.3977 | 1216.7 | 1.966
x1 = 0.3377 | 788.9 | 1.3922 | 1193.9 | 1.491
x1 = 0.4423 | 779.7 | 1.3874 | 1172.2 | 1.123
x1 = 0.5433 | 770.4 | 1.3825 | 1141.6 | 0.8294
x1 = 0.6409 | 759.5 | 1.3774 | 1110.7 | 0.6199
x1 = 0.7352 | 747.9 | 1.3724 | 1077.3 | 0.4811
x1 = 0.8263 | 736.1 | 1.3664 | 1046.3 | 0.382
x1 = 0.9146 | 723 | 1.3601 | 1011.2 | 0.3141
x1 = 1 | 708.3 | 1.3515 | 982.3 | 0.2469

C1COCO1 [1,3-dioxolane] + CCOCC
x1 = 1
Settings | mass density [kg/m3] | refractive index | speed of sound [m/s] | viscosity [mPa·s]
[1] | 1058.7 | – | 1339.4 | 0.5894
[2] | – | 1.3985 | – | –

CCCCCO [pentan-1-ol]
Settings | mass density [kg/m3] | refractive index | speed of sound [m/s] | viscosity
[3] | 811.2 | – | 1271.6 | 3.504 mPa·s and 3.404 mPa·s
[4] | – | 1.41 | – | –

CCCCCO [pentan-1-ol] + C1COCO1
x2 = 0
Settings | mass density [kg/m3] | refractive index | speed of sound [m/s] | viscosity [mPa·s]
[1] | 811.2 | – | 1271.6 | 3.504
[2] | – | 1.41 | – | –

CCCCCO [pentan-1-ol] + CCOCC
x2 = 0
Settings | mass density [kg/m3] | refractive index | speed of sound [m/s] | viscosity [mPa·s]
[1] | 811.2 | – | 1271.6 | 3.504
[2] | – | 1.41 | – | –

CCOCC [diethyl ether]
Settings | mass density [kg/m3] | refractive index | speed of sound [m/s] | viscosity [mPa·s]
[3] | 708.3 | – | 982.3 | 0.2469
[4] | – | 1.3515 | – | –

C1COCO1 [1,3-dioxolane]
Settings | mass density [kg/m3] | refractive index | speed of sound | viscosity [mPa·s]
[3] | 1058.7 | – | 1339.4 m/s and 1339.5 m/s | 0.5894
[4] | – | 1.3985 | – | –
